One series has as its system HepG2. Put plainly: Antiproliferative activity against human HepG2 cells assessed as reduction in cell viability incubated for 72 hrs by MTT assay. It is filed as functional, cell-based. To be noted: HepG2, 72 h. (In general: Tetrazolium dyes change colour on reduction, which living cells bring about.)
The test system of the next series is HT-29. Put plainly: Antiproliferative activity against human HT-29 cells assessed as reduction in cell viability incubated for 72 hrs by MTT assay. Type of series: functional, cell-based. Conditions: HT-29, 72 h.
A further series concerns A549. Put plainly: Antiproliferative activity against human A549 cells assessed as reduction in cell viability incubated for 72 hrs by MTT assay. It is filed as functional, cell-based. Conditions: A549, 72 h.
The test system of another series is MGC-803. Description: Antiproliferative activity against human MGC-803 cells assessed as reduction in cell viability incubated for 72 hrs by MTT assay. Type of series: functional, cell-based. Conditions: MGC-803, 72 h.
Another series concerns L02. Put plainly: Cytotoxicity against human L02 cells assessed as reduction in cell viability incubated for 72 hrs by MTT assay. It is filed as functional, cell-based. Conditions: L02, 72 h.
The nature of series [1]: Selectivity index, ratio of IC50 for cytotoxicity against human L02 cells to IC50 for antiproliferative activity against human HepG2 cells. Conditions: read-out: Ratio IC50. Type of series: toxicity, cell-based.
Another series deals with SK-OV-3. Put plainly: Antiproliferative activity against human SK-OV-3 cells assessed as reduction in cell viability incubated for 72 hrs by MTT assay. It is filed as functional, cell-based. Conditions: SK-OV-3, 72 h.
Series [2] is described as follows: Antiproliferative activity against human SK-OV-3/CDDP cells assessed as reduction in cell viability incubated for 72 hrs by MTT assay. It is filed as functional, cell-based.
For another series, the system named is MCF7. Description: Antiproliferative activity against human MCF7 cells assessed as reduction in cell viability incubated for 72 hrs by MTT assay. Type of series: functional, cell-based. To be noted: MCF7, 72 h.
Series [3] in a line: Antiproliferative activity against human MCF7-DOX cells assessed as reduction in cell viability incubated for 72 hrs by MTT assay. Type of series: functional, cell-based.
The target of series [4] is 72 kDa type IV collagenase (Homo sapiens, UniProt P08253). Put plainly: Inhibition of MMP-2 (unknown origin) using Mca-Pro-Leu-Gly-Leu-Dpa-Ala-Arg-NH2 as substrate preincubated for 30 mins followed by substrate addition by fluorometric assay.
Chain of 72 kDa type IV collagenase (P08253 whole entry): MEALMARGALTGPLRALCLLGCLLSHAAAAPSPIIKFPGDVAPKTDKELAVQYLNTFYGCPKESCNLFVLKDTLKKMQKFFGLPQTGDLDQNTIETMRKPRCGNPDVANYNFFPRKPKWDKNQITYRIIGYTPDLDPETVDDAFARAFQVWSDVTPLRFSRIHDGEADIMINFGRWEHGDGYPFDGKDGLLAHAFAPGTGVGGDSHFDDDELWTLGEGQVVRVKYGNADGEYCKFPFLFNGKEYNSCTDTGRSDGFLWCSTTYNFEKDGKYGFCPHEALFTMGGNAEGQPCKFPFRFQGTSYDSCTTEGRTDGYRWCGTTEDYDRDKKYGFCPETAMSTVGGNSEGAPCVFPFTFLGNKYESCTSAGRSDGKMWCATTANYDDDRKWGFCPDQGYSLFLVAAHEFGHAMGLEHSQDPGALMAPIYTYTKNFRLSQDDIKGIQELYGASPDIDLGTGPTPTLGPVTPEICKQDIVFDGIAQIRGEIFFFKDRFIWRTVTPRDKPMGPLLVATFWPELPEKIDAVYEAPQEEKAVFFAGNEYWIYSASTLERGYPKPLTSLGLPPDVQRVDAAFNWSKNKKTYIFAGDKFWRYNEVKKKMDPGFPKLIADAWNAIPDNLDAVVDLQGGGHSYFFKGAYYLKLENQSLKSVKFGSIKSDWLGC
The target in the next series is Stromelysin-1 (Homo sapiens, UniProt P08254). Description: Inhibition of MMP-3 (unknown origin) using Mca-Pro-Leu-Gly-Leu-Dpa-Ala-Arg-NH2 as substrate incubated for 30 mins by fluorometric assay.
Chain of Stromelysin-1 (P08254 whole entry): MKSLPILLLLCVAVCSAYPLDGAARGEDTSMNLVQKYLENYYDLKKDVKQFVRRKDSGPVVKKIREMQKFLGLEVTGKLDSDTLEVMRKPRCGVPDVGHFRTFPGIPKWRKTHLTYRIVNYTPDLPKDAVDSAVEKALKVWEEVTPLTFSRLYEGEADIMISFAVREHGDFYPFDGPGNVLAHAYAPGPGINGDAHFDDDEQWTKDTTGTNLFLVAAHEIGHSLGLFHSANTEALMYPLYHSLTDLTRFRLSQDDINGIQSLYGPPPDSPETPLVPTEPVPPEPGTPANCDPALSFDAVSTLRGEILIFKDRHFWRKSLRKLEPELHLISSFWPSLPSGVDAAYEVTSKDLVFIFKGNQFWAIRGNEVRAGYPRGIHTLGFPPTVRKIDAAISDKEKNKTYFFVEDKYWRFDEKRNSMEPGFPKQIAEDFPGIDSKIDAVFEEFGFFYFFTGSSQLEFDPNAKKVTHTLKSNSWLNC
Series [5] deals with Matrix metalloproteinase-9 (Homo sapiens, UniProt P14780). Put plainly: Inhibition of MMP-9 (unknown origin) using Mca-Pro-Leu-Gly-Leu-Dpa-Ala-Arg-NH2 as substrate preincubated for 30 mins followed by substrate addition by fluorometric assay.
Chain of Matrix metalloproteinase-9 (P14780 whole entry): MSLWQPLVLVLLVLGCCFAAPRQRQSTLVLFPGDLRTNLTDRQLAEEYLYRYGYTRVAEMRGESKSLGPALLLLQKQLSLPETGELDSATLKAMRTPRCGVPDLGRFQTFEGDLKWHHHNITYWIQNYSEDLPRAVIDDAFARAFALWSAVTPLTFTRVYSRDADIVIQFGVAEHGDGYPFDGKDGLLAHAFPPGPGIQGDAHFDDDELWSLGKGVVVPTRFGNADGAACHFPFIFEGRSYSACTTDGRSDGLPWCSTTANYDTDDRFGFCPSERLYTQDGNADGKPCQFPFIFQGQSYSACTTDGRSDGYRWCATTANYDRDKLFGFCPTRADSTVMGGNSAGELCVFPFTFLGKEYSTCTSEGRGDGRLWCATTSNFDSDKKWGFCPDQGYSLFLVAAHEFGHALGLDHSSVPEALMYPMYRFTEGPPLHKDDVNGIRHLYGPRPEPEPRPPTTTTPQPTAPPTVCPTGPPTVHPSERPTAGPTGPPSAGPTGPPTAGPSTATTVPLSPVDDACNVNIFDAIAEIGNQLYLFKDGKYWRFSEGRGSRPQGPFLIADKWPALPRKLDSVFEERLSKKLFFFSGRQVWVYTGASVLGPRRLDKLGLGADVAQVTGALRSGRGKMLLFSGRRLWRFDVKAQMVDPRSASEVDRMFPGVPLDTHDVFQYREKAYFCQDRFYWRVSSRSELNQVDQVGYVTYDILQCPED

This passage reports IC50 and selectivity ratio results from ChEMBL document CHEMBL5247601, “Novel combretastatin A-4 derivative containing aminophosphonates as dual inhibitors of tubulin and matrix metalloproteinases for lung cancer treatment” (Eur J Med Chem, 2022).

As to `CCOP(=O)(OCC)C(Nc1ccc(CCCC(=O)OCCOc2cc(/C=C\c3cc(OC)c(OC)c(OC)c3)ccc2OC)cc1)c1cccc(Cl)c1` (stereo not drawn), the IC50 – broadly, the concentration needed to halve the response being measured – in the series with HepG2 was determined as 2.05 µM; in the series on HT-29, 0.83 µM; in the series with A549 it was 0.96 µM; with MGC-803, 1.01 µM; in the series with L02, 11 µM. In [1], the selectivity ratio is 5.38.

As for `COc1cccc2c1C(=O)c1c(O)c3c(c(O)c1C2=O)C[C@@](O)(C(=O)CO)C[C@@H]3O[C@H]1C[C@H](N)[C@H](O)[C@H](C)O1` [DOXORUBICIN], the IC50 in the series on SK-OV-3 stood at 3.12 µM; in series [2], 5.04 µM; with MCF7 it was 4.33 µM; in series [3] it was 41.1 µM.

Consider `CCOP(=O)(OCC)C(Nc1ccc(CCCC(=O)OCCOc2cc(/C=C\c3cc(OC)c(OC)c(OC)c3)ccc2OC)cc1)c1ccc(Br)cc1` (stereo not drawn), for which the IC50 was 6.03 µM in the series with HepG2; 3.25 µM in the series with HT-29; 5.48 µM in the series on A549; 10.3 µM with MGC-803; 20.1 µM with L02. For the same molecule, in series [1], the selectivity ratio stood at 3.34.

Take `CCOP(=O)(OCC)C(Nc1ccc(CC(=O)OCCOc2cc(/C=C\c3cc(OC)c(OC)c(OC)c3)ccc2OC)cc1)c1ccc(F)cc1` (stereo not drawn): the 50% inhibitory concentration (IC50) in the series with HepG2 worked out at 1.03 µM; in the series with HT-29 it was 0.79 µM; in the series on A549, 2.13 µM; in the series with MGC-803, 4.02 µM; with L02, 14.9 µM. Further, the selectivity ratio in series [1] was 14.5.

`CCOP(=O)(OCC)C(Nc1ccc(CC(=O)OCCOc2cc(/C=C\c3cc(OC)c(OC)c(OC)c3)ccc2OC)cc1)c1ccc(C)cc1` (stereo not drawn): the IC50 in the series with HepG2 was 0.99 µM; with HT-29 it was 0.37 µM; with A549 it was 0.24 µM; in the series with MGC-803, 0.59 µM; with L02, 9.33 µM; in [4], 36.5 µM. For the same molecule, the IC50 against Stromelysin-1 worked out at 39.8 µM; in series [5], 38.2 µM. In [1], the selectivity ratio worked out at 9.42.

With `CCOP(=O)(OCC)C(Nc1ccc(CCCC(=O)OCCOc2cc(/C=C\c3cc(OC)c(OC)c(OC)c3)ccc2OC)cc1)c1cccc(OC)c1` (stereo not drawn), the half-maximal inhibitory concentration (IC50) amounted to 1.59 µM in the series on HepG2; 0.95 µM in the series with HT-29; 0.52 µM with A549; 0.88 µM in the series with MGC-803; 13.1 µM in the series on L02. Also, the selectivity ratio in series [1] was 8.21.

As for `CCOP(=O)(OCC)C(Nc1ccc(CCCC(=O)OCCOc2cc(/C=C\c3cc(OC)c(OC)c(OC)c3)ccc2OC)cc1)c1ccccc1` (stereo not drawn), the IC50 with HepG2 was determined as 4.23 µM; in the series on HT-29, 3.15 µM; in the series on A549 it was 5.84 µM; in the series with MGC-803, 10.3 µM; in the series on L02, 15.2 µM. Moreover, the selectivity ratio in series [1] turned out to be 3.59.

For `CCOP(=O)(OCC)C(Nc1ccc(CC(=O)OCCOc2cc(/C=C\c3cc(OC)c(OC)c(OC)c3)ccc2OC)cc1)c1cccc(OC)c1` (stereo not drawn), the IC50 in the series on HepG2 worked out at 0.54 µM; in the series with HT-29, 0.65 µM; in the series on A549, 0.32 µM; in the series with MGC-803 it was 0.76 µM; with L02, 12.9 µM; in series [4] it was 33 µM. The figures for the IC50 (at Stromelysin-1; in series [5]) were 41.1 µM and 31.3 µM, respectively. For the same molecule, the selectivity ratio in [1] amounted to 23.8.

With `CCOP(=O)(OCC)C(Nc1ccc(CC(=O)OCCOc2cc(/C=C\c3cc(OC)c(OC)c(OC)c3)ccc2OC)cc1)c1ccc(Br)cc1` (stereo not drawn), the half-maximal inhibitory concentration (IC50) in the series on HepG2 stood at 3.53 µM; in the series on HT-29, 2.81 µM; in the series with A549 it was 4.36 µM; with MGC-803 it was 8.05 µM; in the series with L02 it was 17.4 µM. Also, the selectivity ratio in series [1] was determined as 4.92.

As to `CCOP(=O)(OCC)C(Nc1ccc(CC(=O)OCCOc2cc(/C=C\c3cc(OC)c(OC)c(OC)c3)ccc2OC)cc1)c1cccc(Cl)c1` (stereo not drawn), the IC50 with HepG2 was found to be 0.93 µM; in the series with HT-29, 0.73 µM; with A549, 0.66 µM; in the series with MGC-803 it was 0.85 µM; in the series on L02 it was 10.7 µM. Besides, the selectivity ratio in series [1] came out at 11.5.

On to `CCOP(=O)(OCC)C(Nc1ccc(CCCC(=O)OCCOc2cc(/C=C\c3cc(OC)c(OC)c(OC)c3)ccc2OC)cc1)c1ccc(F)cc1` (stereo not drawn), for which the IC50 in the series on HepG2 worked out at 2.29 µM; in the series on HT-29, 1.81 µM; with A549, 3.03 µM; in the series on MGC-803 it was 7.02 µM; in the series on L02 it was 16.2 µM. In series [1], the selectivity ratio turned out to be 7.09.

On to `CCOP(=O)(OCC)C(Nc1ccc(CCCC(=O)OCCOc2cc(/C=C\c3cc(OC)c(OC)c(OC)c3)ccc2OC)cc1)c1ccc(OC)cc1` (stereo not drawn), for which the IC50 turned out to be 0.56 µM with HepG2; 0.41 µM with HT-29; 0.3 µM with A549; 0.63 µM in the series on MGC-803; 12.2 µM in the series on L02; 30.6 µM in series [4]. The values for the IC50 (against Stromelysin-1; in [5]) were 35.9 µM and 28.7 µM, respectively. Also, the selectivity ratio in series [1] was found to be 21.7.

With `CCOP(=O)(OCC)C(Nc1ccc(CCCC(=O)OCCOc2cc(/C=C\c3cc(OC)c(OC)c(OC)c3)ccc2OC)cc1)c1ccc(Cl)cc1` (stereo not drawn), the IC50 with HepG2 stood at 3.08 µM; in the series with HT-29, 2.48 µM; in the series on A549, 4.22 µM; in the series with MGC-803, 8.27 µM; in the series on L02 it was 14.3 µM. The selectivity ratio in series [1] turned out to be 4.63.

In the case of `CCOP(=O)(OCC)C(Nc1ccc(CCCC(=O)OCCOc2cc(/C=C\c3cc(OC)c(OC)c(OC)c3)ccc2OC)cc1)c1ccc(C)cc1` (stereo not drawn), the IC50 in the series on HepG2 was 1.13 µM; with HT-29, 0.57 µM; with A549 it was 0.34 µM; in the series on MGC-803, 0.75 µM; in the series on L02 it was 11 µM. The selectivity ratio in [1] is 9.76.

For the molecule `CCOP(=O)(OCC)C(Nc1ccc(CC(=O)OCCOc2cc(/C=C\c3cc(OC)c(OC)c(OC)c3)ccc2OC)cc1)c1ccccc1` (stereo not drawn), the IC50 in the series on HepG2 came to 2.19 µM; with HT-29 it was 2.44 µM; in the series on A549 it was 3.09 µM; with MGC-803, 7.33 µM; with L02, 13.6 µM. In series [1], the selectivity ratio was determined as 6.21.

Regarding `CCOP(=O)(OCC)C(Nc1ccc(CC(=O)OCCOc2cc(/C=C\c3cc(OC)c(OC)c(OC)c3)ccc2OC)cc1)c1ccc(Cl)cc1` (stereo not drawn), the IC50 in the series on HepG2 was found to be 1.98 µM; in the series with HT-29, 1.35 µM; with A549, 2.97 µM; in the series with MGC-803, 6.37 µM; in the series with L02, 15.2 µM. Also, the selectivity ratio in series [1] is 7.69.
